The results in this text go back to patent US9828350B2, “5,6-dihydro-2H-[1,4]oxazin-3-yl-amine derivatives useful as inhibitors of beta-secretase (BACE)” (Janssen Pharmaceutica NV, priority 2010, dated 2017).

Some results are limits rather than exact numbers.

Test [1] deals with Abeta 1-42. The experiment in a line: Cellular αLisa assay in SKNBE2 cells, Abeta 1-42. The following applies: incubated for 18 hours; for IC50: Homo sapiens, SKNBE2, 18 h, read-out: Cellular αLisa assay in SKNBE2 cells Abeta 42 pIC50 (converted). It is filed as cell-based, human. As for the experimental part:
(§1) Cellular αLisa Assay in SKNBE2 Cells
(§2) In two αLisa assays the levels of Abeta total and Abeta 1-42 produced and secreted into the medium of human neuroblastoma SKNBE2 cells are quantified. The assay is based on the human neuroblastoma SKNBE2 expressing the wild type Amyloid Precursor Protein (hAPP695). The compounds are diluted and added to these cells, incubated for 18 hours and then measurements of Abeta 1-42 and Abeta total are taken. Abeta total and Abeta 1-42 are measured by sandwich αLisa. αLisa is a sandwich assay using biotinylated antibody AbN/25 attached to streptavidin coated beads and antibody Ab4G8 or cAb42/26 conjugated acceptor beads for the detection of Abeta total and Abeta 1-42 respectively. In the presence of Abeta total or Abeta 1-42, the beads come into close proximity. The excitation of the donor beads provokes the release of singlet oxygen molecules that trigger a cascade of energy transfer in the acceptor beads, resulting in light emission. Light emission is measured after 1 hour incubation (excitation at […] and emission at 615 nm).

The target of test [2] is recombinant BACE1 protein (Homo sapiens, UniProt P56817). The experiment in a line: Biochemical FRET based assay. The following applies: recombinant BACE1 1 μg/ml, 120 minutes at room temperature, pH 5.0; for IC50: read-out: Biochemical FRET based assay pIC50 (converted). From the text:
Biochemical FRET Based Assay
This assay is a Fluorescence Resonance Energy Transfer Assay (FRET) based assay. The substrate for this assay is an APP derived 13 amino acids peptide that contains the ‘Swedish’ Lys-Met/Asn-Leu mutation of the amyloid precursor protein (APP) beta-secretase cleavage site. This substrate also contains two fluorophores: (7-methoxycoumarin-4-yl) acetic acid (Mca) is a fluorescent donor with excitation wavelength at 320 nm and emission at 405 nm and 2,4-Dinitrophenyl (Dnp) is a proprietary quencher acceptor. […] Upon cleavage by BACE1, the fluorophore Mca is separated from the quenching group Dnp, restoring the full fluorescence yield of the donor. The increase in fluorescence is linearly related to the rate of proteolysis.
Briefly in a 384-well format recombinant BACE1 protein in a final concentration of 1 μg/ml is incubated for 120 minutes at room temperature with […] substrate in incubation buffer (40 mM Citrate buffer pH 5.0, 0.04% PEG, 4% DMSO) in the absence or presence of compound. Next the amount of proteolysis is directly measured by fluorescence measurement at T=0 and T=120 (excitation at 320 nm and emission at 405 nm). Results are expressed in RFU (Relative Fluorescence Units), as difference between T120 and TO.

Test [3] relates to Abeta total. The experiment in a line: Cellular αLisa assay in SKNBE2 cells, Abeta total. It counts as cell-based, human. The following applies: incubated for 18 hours; for IC50: Homo sapiens, SKNBE2, 18 h, read-out: Cellular αLisa assay in SKNBE2 cells Abetatotal pIC50 (converted). As for the experimental part: as §1, §2

Chain of recombinant BACE1 protein (P56817 46-501): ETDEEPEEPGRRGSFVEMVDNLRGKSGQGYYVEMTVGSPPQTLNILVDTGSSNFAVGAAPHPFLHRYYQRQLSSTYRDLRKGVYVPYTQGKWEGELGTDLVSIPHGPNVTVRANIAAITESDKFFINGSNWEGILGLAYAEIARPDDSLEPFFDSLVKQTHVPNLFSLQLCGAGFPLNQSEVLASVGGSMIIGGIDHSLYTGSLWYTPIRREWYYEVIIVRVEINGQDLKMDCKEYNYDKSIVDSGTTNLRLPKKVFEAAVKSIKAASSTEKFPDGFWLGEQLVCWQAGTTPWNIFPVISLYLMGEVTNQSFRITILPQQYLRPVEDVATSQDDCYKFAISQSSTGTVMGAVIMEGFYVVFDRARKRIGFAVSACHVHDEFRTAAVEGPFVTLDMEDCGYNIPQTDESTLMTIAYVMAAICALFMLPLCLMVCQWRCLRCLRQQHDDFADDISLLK

Consider `COc1cnc(C(=O)Nc2cccc([C@@]3(C4CC4)N=C(N)CO[C@]3(F)C(F)(F)F)c2)cn1` [Compound 202], for which the IC50 in test [1] was 0.537 µM; in test [2], 0.479 µM; in test [3], 0.537 µM.
As for `CCC1(c2cc(NC(=O)c3cnc(OC)cn3)ccc2F)N=C(N)COC1(F)C(F)(F)F` (stereo not drawn) [Compound 300], the “Cellular αLisa assay in SKNBE2 cells Abeta 42 pIC50” value in test [1] is 5.91. Besides, the IC50 in test [2] is 1.55 µM. In addition, the “Cellular αLisa assay in SKNBE2 cells Abetatotal pIC50” value in test [3] stood at 5.93.
`CC1(c2cc(NC(=O)c3ccc(C(F)(F)F)nn3)ccc2F)COCC(N)=N1` (stereo not drawn) [Compound 26]: in test [1], the “Cellular αLisa assay in SKNBE2 cells Abeta 42 pIC50” value was found to be 6.72. In addition, the “Biochemical FRET based assay pIC50” value in test [2] was found to be 5.67. Further, the “Cellular αLisa assay in SKNBE2 cells Abetatotal pIC50” value in test [3] is 6.74.
In the case of `CC1(c2cc(NC(=O)c3ncc(Cl)cc3F)ccc2F)COCC(N)=N1` (stereo not drawn) [Compound 35], in test [1], the “Cellular αLisa assay in SKNBE2 cells Abeta 42 pIC50” value was 8.37. For the same molecule, the “Biochemical FRET based assay pIC50” value in test [2] is given as 7.11. The “Cellular αLisa assay in SKNBE2 cells Abetatotal pIC50” value in test [3] is given as 8.4.
For the molecule `COc1cnc(C(=O)Nc2ccc(F)c([C@@]3(C4CC4)N=C(N)CO[C@H]3C(F)(F)F)c2)cn1` [Compound 230], the IC50 in test [1] is 0.0138 µM; in test [2], 0.0457 µM; in test [3], 0.0135 µM.
Regarding `CCC1(c2cc(-c3cncnc3)ccc2F)N=C(N)COC1(F)C(F)(F)F` (stereo not drawn) [Compound 302], the “Cellular αLisa assay in SKNBE2 cells Abeta 42 pIC50” value in test [1] is less than 5. Also, in test [2], the IC50 was greater than 30.2 µM. In addition, in test [3], the “Cellular αLisa assay in SKNBE2 cells Abetatotal pIC50” value is reported as less than 5.
In the case of `NC1=N[C@@](c2cc(NC(=O)c3ncc(Cl)cc3F)ccc2F)(C2CC2)[C@H](F)OC1` [Compound 220], the IC50 in test [1] was 0.355 µM; in test [2], 0.468 µM; in test [3], 0.347 µM.
For `COc1cnc(C(=O)Nc2cccc(C3(C)N=C(N)COC3F)c2)cn1` (single isomer, unassigned) [Compound 132], the “Cellular αLisa assay in SKNBE2 cells Abeta 42 pIC50” value in test [1] is listed as 6.35. Moreover, the IC50 in test [2] was 1.1 µM. Moreover, the “Cellular αLisa assay in SKNBE2 cells Abetatotal pIC50” value in test [3] came to 6.38.
`NC1=N[C@@](c2cc(NC(=O)c3ccc(Cl)cn3)ccc2F)(C2CC2)[C@H](C(F)(F)F)OC1` [Compound 233]: the figures for the IC50 in test [1], in test [2] and in test [3] were 0.012 µM, 0.0316 µM and 0.0129 µM, respectively.
On to `CC1(c2cc(-c3cncnc3)c(F)cc2F)N=C(N)COC1F` (single isomer, unassigned) [Compound 81], for which the IC50 in test [1] is 1.23 µM; in test [2], 8.91 µM; in test [3], 1.2 µM.
Turning to `NC1=N[C@@](c2cccc(-c3cncnc3)c2)(C2CC2)[C@H](C(F)(F)F)OC1` [Compound 269], the IC50 is 0.0589 µM in test [1], 0.158 µM in test [2] and 0.0575 µM in test [3].
For the molecule `C[C@@]1(c2cc(-c3cncnc3)c(F)cc2F)N=C(N)CO[C@H]1F` (racemic) [Compound 83, trans-rac-5-(2,4-difluoro-5-pyrimidin-5-ylphenyl)-6-fluoro-5-methyl-5,6-dihydro-2H-1,4-oxazin-3-amine], in test [1], the “Cellular αLisa assay in SKNBE2 cells Abeta 42 pIC50” value was 6.29. For the same molecule, the “Biochemical FRET based assay pIC50” value in test [2] was 6.01. The “Cellular αLisa assay in SKNBE2 cells Abetatotal pIC50” value in test [3] was found to be 6.29.
As for `C[C@]1(c2cc(NC(=O)c3cnc(OCC(F)(F)F)cn3)ccc2F)N=C(N)CO[C@@]1(F)C(F)(F)F` [Compound 319], the IC50 in test [1] is 0.0741 µM; in test [2], 0.0437 µM; in test [3] it was 0.0692 µM.
As for `CC1(c2cc(-c3cncnc3)ccc2F)N=C(N)COC1C(F)(F)F` (single isomer, unassigned) [Compound 267], the “Cellular αLisa assay in SKNBE2 cells Abeta 42 pIC50” value in test [1] is 5.15. Moreover, in test [2], the IC50 is greater than 30.2 µM. For the same molecule, the “Cellular αLisa assay in SKNBE2 cells Abetatotal pIC50” value in test [3] was less than 5.
In the case of `CCC1(c2cc(NC(=O)c3ncc(Cl)cc3F)ccc2F)N=C(N)COC1F` (stereo not drawn) [Compound 283], the IC50 in test [1] was 0.0302 µM; in test [2], 0.0676 µM; in test [3], 0.0245 µM.
For the molecule `N#Cc1cnc(C(=O)Nc2cccc([C@@]3(C4CC4)N=C(N)CO[C@H]3C(F)(F)F)c2)c(Cl)c1` [Compound 291], the values for the IC50 in test [1], in test [2] and in test [3] were 0.00562 µM, 0.0324 µM and 0.0049 µM, respectively.
Turning to `NC1=N[C@@](c2cc(-c3cncnc3)ccc2F)(C2CC2)[C@H](F)OC1` [Compound 224, (5R,6S)-5-cyclopropyl-6-fluoro-5-(2-fluoro-5-pyrimidin-5-ylphenyl)-5,6-dihydro-2H-1,4-oxazin-3-amine], the values for the IC50 in test [1], in test [2] and in test [3] were greater than 10 µM, 14.8 µM and greater than 10 µM, respectively.
On to `CC1(c2cc(-c3cncc(C#N)c3)ccc2F)N=C(N)COC1C(F)(F)F` (stereo not drawn) [Compound 239], for which the IC50 is 0.224 µM in test [1], 1.05 µM in test [2] and 0.224 µM in test [3].
Take `N#Cc1ccc(C(=O)Nc2cccc([C@@]3(C4CC4)N=C(N)CO[C@@H]3F)c2)nc1` [Compound 251]: the IC50 in test [1] is 0.0417 µM; in test [2] it was 0.049 µM; in test [3] it was 0.038 µM.
For the molecule `COc1cncc(-c2cccc(C3(C)N=C(N)COC3C(F)(F)F)c2)c1` (single isomer, unassigned) [Compound 102], the “Cellular αLisa assay in SKNBE2 cells Abeta 42 pIC50” value in test [1] was less than 5. For the same molecule, in test [2], the IC50 is greater than 30.2 µM. Besides, the “Cellular αLisa assay in SKNBE2 cells Abetatotal pIC50” value in test [3] is recorded as less than 5.
As to `CC1(c2cccc(NC(=O)c3ccc(Cl)cn3)c2)COC(F)(C(F)(F)F)C(N)=N1` (single isomer, unassigned) [Compound 154], the “Cellular αLisa assay in SKNBE2 cells Abeta 42 pIC50” value in test [1] is less than 5. In test [2], the “Biochemical FRET based assay pIC50” value is less than 4.52. For the same molecule, in test [3], the “Cellular αLisa assay in SKNBE2 cells Abetatotal pIC50” value was less than 5.
Consider `Cc1ccc(C(=O)Nc2cccc(C3(C)N=C(N)COC3(F)C(F)(F)F)c2)nc1` (single isomer, unassigned) [Compound 192], for which, in test [1], the “Cellular αLisa assay in SKNBE2 cells Abeta 42 pIC50” value is reported as less than 5. Also, the IC50 in test [2] is greater than 30.2 µM. The “Cellular αLisa assay in SKNBE2 cells Abetatotal pIC50” value in test [3] is less than 5.
For `NC1=N[C@@](c2cccc(NC(=O)c3ncc(Cl)cc3F)c2)(C2CC2)[C@H](C(F)(F)F)OC1` [Compound 288], the IC50 is 0.00776 µM in test [1], 0.0331 µM in test [2] and 0.00741 µM in test [3].
As to `COc1cnc(C(=O)Nc2cccc(C3(C)COC(F)(C(F)(F)F)C(N)=N3)c2)cn1` (single isomer, unassigned) [Compound 69], the “Cellular αLisa assay in SKNBE2 cells Abeta 42 pIC50” value in test [1] was 5.13. Besides, the IC50 in test [2] is 5.13 µM. Moreover, the “Cellular αLisa assay in SKNBE2 cells Abetatotal pIC50” value in test [3] is reported as less than 5.
Consider `COc1cncc(-c2ccc(F)c(C3(C)COCC(N)=N3)c2)c1` (racemic) [Compound 63], for which, in test [1], the “Cellular αLisa assay in SKNBE2 cells Abeta 42 pIC50” value came out at 6.94. In addition, in test [2], the “Biochemical FRET based assay pIC50” value is on record as 5.46. Further, in test [3], the “Cellular αLisa assay in SKNBE2 cells Abetatotal pIC50” value came out at 6.9.
`CC1(c2cc(-c3cccc(C#N)c3)c(F)cc2F)COCC(N)=N1` (stereo not drawn) [Compound 32]: the “Cellular αLisa assay in SKNBE2 cells Abeta 42 pIC50” value in test [1] turned out to be 6.2. For the same molecule, in test [2], the “Biochemical FRET based assay pIC50” value stood at 4.87. For the same molecule, the “Cellular αLisa assay in SKNBE2 cells Abetatotal pIC50” value in test [3] was found to be 6.25.
For `N#Cc1cncc(-c2ccc(F)c([C@@]3(C4CC4)N=C(N)CO[C@@]3(F)C(F)(F)F)c2)c1` [Compound 271], the IC50 in test [1] was greater than 10 µM; in test [2] it was greater than 30.2 µM; in test [3], greater than 10 µM.
With `NC1=NC(c2cc(-c3cncnc3)ccc2F)(C2CC2)C(F)OC1` (stereo not drawn) [Compound 296], in test [1], the “Cellular αLisa assay in SKNBE2 cells Abeta 42 pIC50” value is given as less than 5. Moreover, the “Biochemical FRET based assay pIC50” value in test [2] was determined as 5.42. Moreover, the “Cellular αLisa assay in SKNBE2 cells Abetatotal pIC50” value in test [3] is less than 5.
As to `C[C@@]1(c2cccc(-c3cncnc3)c2)COC2(CC2)C(N)=N1` [Compound 74], the IC50 in test [1] was 0.195 µM; in test [2] it was 4.17 µM; in test [3], 0.204 µM.
Regarding `COc1cnc(C(=O)Nc2cccc(C3(C)N=C(N)COC3F)c2)cn1` (stereo not drawn) [Compound 80], the values for the IC50 in test [1], in test [2] and in test [3] were 0.0603 µM, 0.0977 µM and 0.0537 µM, respectively.
Regarding `COc1cncc(-c2cccc(C3(C)N=C(N)COC3(F)C(F)(F)F)c2)c1` (single isomer, unassigned) [Compound 141], the “Cellular αLisa assay in SKNBE2 cells Abeta 42 pIC50” value in test [1] is on record as less than 5. For the same molecule, in test [2], the IC50 is greater than 30.2 µM. Besides, the “Cellular αLisa assay in SKNBE2 cells Abetatotal pIC50” value in test [3] is on record as less than 5.
